Measured values taken from patent US11186610B2, “Crystal of glutathione trisulfide dihydrate and method for producing same” (KYOWA HAKKO BIO CO., LTD., priority 2016, dated 2021).

Test: Hygroscopicity / storage stability: weight change on storage at 40° C. and 75% relative humidity
Format: physicochemical
Details: for Weight change with the elapse of time (in words): storage 0-4 hours at 40° C.
Protocol: 1 g of the crystal of glutathione trisulfide dihydrate produced in Example 2 was dissolved in water, and the volume was made up to 100 mL. The aqueous solution was filtered with a 0.45 μm of filter and then lyophilized to obtain a whitish transparent powder.
Subsequently, hygroscopicity of the obtained non-crystalline amorphous form of glutathione trisulfide and the crystal of glutathione trisulfide dihydrate produced in Example 2 was compared.
About 100 mg of each sample was weighed with a precise balance and then filled in a glass container, and after storage in THE051A (manufactured by Advantec Toyo Kaisha, Ltd.) under conditions of 40° C. and 75% relative humidity, the sample was weighed again to calculate a weight change rate. The sample weight after each elapsed time was measured with respect to 100% weight at the start of test.

[1] = as compared with the non-crystalline amorphous form, 40° C.

Compound | Sample weight with respect to 100% weight at the start of test (elapsed time 0 hour, 40° C.) [%] | Sample weight with respect to 100% weight at the start of test (elapsed time 0.5 hour, 40° C.) [%] | Sample weight with respect to 100% weight at the start of test (elapsed time 1 hour, 40° C.) [%] | Sample weight with respect to 100% weight at the start of test (elapsed time 2 hours, 40° C.) [%] | Sample weight with respect to 100% weight at the start of test (elapsed time 4 hours, 40° C.) [%] | Weight change with the elapse of time (in words) | Hygroscopicity (in words) [1] | Storage stability (in words) [1]
N[C@@H](CCC(=O)N[C@@H](CSSSC[C@H](NC(=O)CC[C@H](N)C(=O)O)C(=O)NCC(=O)O)C(=O)NCC(=O)O)C(=O)O [non-crystalline amorphous form, glutathione trisulfide] | 100.0 | 106.7 | 107.7 | 108.7 | 108.7 | increases with the elapse of time |  | 
N[C@@H](CCC(=O)N[C@@H](CSSSC[C@H](NC(=O)CC[C@H](N)C(=O)O)C(=O)NCC(=O)O)C(=O)NCC(=O)O)C(=O)O.O.O [crystal of dehydrate, glutathione trisulfide dihydrate] | 100.0 | 100.0 | 100.0 | 100.0 | 100.0 | almost not changed | low hygroscopicity | excellent storage stability
